This note sets out measurements from ChEMBL document CHEMBL4425158, “Synthesis, structure-activity relationships and biological evaluation of 4,5,6,7-tetrahydropyrazolopyrazines as metabotropic glutamate receptor 5 negative allosteric modulators” (Bioorg Med Chem Lett, 2016).

Each structure is given as a SMILES string. pIC50: −log10 of the molar value. Values after ≈ are worked out from the molar mass of the structure shown. Active and inactive are the calls of the source.

Data set [1] in a line: Aqueous solubility of the compound at pH 7.4. The data set is classed as physicochemical.
Data set [2] is described as follows: Ratio of drug level in brain to plasma in ICR mouse at 30 mg/kg, po after 1 hr by LC/MS/MS analysis. The data set is classed as ADME, organism-based. As to conditions: read-out: BPR.
Data set [3] is described as follows: Protein binding in ICR mouse brain at 30 mg/kg, po after 1 hr by LC/MS/MS analysis. The data set is classed as ADME, organism-based. As to conditions: read-out: PB (converted).
The target in a further data set is T1, Cytochrome P450 2C8 (Homo sapiens, UniProt P10632).
T1 sequence (P10632 whole entry): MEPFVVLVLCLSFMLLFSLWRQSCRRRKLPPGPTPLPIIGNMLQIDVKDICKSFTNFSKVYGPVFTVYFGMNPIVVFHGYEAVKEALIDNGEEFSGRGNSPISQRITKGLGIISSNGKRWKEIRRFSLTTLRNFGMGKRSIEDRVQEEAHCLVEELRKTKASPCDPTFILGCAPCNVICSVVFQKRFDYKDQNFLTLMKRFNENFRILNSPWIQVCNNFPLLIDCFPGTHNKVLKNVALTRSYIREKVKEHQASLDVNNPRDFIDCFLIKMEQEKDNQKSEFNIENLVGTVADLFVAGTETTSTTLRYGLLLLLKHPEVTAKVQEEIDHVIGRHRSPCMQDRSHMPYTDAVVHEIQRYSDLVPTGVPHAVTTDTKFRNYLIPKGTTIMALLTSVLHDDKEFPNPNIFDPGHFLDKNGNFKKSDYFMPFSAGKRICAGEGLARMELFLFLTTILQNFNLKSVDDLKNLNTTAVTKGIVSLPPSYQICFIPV
The experiment in a line: Inhibition of CYP2C8 in human liver microsomes using amodiaquin as substrate after 10 mins in presence of NADPH by LC/MS/MS analysis. The data set is classed as ADME.

In data set [4] the target is T2, Aryl hydrocarbon receptor (Homo sapiens, UniProt P35869).
T2 sequence (P35869 whole entry): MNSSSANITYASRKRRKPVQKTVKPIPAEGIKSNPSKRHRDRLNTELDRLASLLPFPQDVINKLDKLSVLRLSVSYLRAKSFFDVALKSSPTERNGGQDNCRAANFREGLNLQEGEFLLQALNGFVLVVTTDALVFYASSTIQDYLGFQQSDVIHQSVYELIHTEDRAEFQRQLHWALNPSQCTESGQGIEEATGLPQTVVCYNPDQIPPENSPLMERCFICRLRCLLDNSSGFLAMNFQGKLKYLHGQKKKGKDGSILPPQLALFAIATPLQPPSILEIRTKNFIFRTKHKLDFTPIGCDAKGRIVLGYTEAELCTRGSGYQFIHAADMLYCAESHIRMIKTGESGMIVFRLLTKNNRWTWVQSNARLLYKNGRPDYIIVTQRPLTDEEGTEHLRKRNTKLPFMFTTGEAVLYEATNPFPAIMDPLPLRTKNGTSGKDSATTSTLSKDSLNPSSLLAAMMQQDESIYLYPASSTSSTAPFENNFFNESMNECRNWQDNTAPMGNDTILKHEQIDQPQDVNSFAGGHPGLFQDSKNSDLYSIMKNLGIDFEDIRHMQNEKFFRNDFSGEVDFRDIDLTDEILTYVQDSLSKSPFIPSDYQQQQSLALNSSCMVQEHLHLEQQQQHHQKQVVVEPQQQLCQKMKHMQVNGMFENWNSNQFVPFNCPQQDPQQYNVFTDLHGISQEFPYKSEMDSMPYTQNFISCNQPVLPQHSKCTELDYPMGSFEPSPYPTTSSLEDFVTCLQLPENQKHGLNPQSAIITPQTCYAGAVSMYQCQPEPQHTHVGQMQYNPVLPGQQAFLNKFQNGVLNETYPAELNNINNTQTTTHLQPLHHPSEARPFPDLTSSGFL
Kind of data set: Induction of human AhR assessed as CYP450 activation. The data set is classed as ADME.

Data set [5] can be described thus: Oral bioavailability in rat plasma at 10 mg/kg, after 15 mins to 24 hrs. The format is ADME, organism-based.
The nature of data set [6]: Metabolic stability in rat liver microsomes assessed as compound remaining at 1 uM after 30 mins in presence of NADPH by LC/MS/MS analysis. The note with it: read-out: Stability. The format is ADME, Microsome. (In general: Liver microsomes are vesicles of endoplasmic reticulum, rich in cytochrome P450 enzymes.)
Data set [7] in a line: Drug uptake in ICR mouse brain at 30 mg/kg, po after 1 hr by LC/MS/MS analysis. The format is ADME, organism-based. The note with it: read-out: Drug uptake.
The next data set deals with Cytochrome P450 2D6 (Homo sapiens, UniProt P10635). Kind of data set: Inhibition of CYP2D6 in human liver microsomes using bufuralol as substrate after 10 mins in presence of NADPH by LC/MS/MS analysis. The data set is classed as ADME.
Cytochrome P450 2D6, sequence (P10635 whole entry): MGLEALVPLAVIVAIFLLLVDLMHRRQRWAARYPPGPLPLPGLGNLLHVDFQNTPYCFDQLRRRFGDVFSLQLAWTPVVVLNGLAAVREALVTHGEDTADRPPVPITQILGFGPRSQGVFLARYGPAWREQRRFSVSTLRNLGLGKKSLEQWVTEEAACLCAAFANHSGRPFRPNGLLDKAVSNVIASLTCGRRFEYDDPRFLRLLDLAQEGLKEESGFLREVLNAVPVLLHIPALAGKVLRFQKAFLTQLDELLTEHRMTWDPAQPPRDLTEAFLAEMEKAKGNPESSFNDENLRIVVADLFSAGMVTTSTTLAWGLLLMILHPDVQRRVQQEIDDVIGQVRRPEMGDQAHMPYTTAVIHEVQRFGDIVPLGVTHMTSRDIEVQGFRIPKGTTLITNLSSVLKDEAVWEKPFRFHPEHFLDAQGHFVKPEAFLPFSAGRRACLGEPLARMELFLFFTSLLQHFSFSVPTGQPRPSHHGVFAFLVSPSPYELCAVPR
A further data set has as its target P-gp (ABCB1) (Homo sapiens, UniProt P08183). Kind of data set: Substrate activity at P-gp (unknown origin) assessed as efflux ratio. The data set is classed as ADME. As to conditions: not told.
For a further data set, the target named is Cytochrome P450 2C9 (Homo sapiens, UniProt P11712). The experiment in a line: Inhibition of CYP2C9 in human liver microsomes using diclofenac as substrate after 10 mins in presence of NADPH by LC/MS/MS analysis. The format is ADME.
Cytochrome P450 2C9, sequence (P11712 whole entry): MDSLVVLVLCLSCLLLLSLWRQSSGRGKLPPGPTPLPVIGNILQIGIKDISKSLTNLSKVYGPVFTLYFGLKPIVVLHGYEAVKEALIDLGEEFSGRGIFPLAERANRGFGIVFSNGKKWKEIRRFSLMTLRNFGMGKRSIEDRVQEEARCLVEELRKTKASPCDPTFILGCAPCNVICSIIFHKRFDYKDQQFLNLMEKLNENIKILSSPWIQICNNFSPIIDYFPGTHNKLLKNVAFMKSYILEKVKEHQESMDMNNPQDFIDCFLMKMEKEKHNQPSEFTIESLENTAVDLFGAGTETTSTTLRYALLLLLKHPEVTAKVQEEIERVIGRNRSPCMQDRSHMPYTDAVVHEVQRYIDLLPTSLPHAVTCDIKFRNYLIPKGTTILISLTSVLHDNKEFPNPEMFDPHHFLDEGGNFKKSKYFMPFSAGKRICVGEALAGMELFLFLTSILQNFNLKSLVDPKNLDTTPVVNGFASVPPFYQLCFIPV
The nature of data set [8]: Volume of distribution in steady state in rat plasma at 1 mg/kg, iv after 5 mins to 24 hrs. The format is ADME, organism-based. As to conditions: read-out: Vdss.
The next data set has as its system Mus musculus. Kind of data set: Antidepressant activity in CD1(ICR) mouse assessed as decrease in immobility time at 30 mg/kg, po after 1 hr by tail suspension test. The format is functional, organism-based.
Data set [9] in a line: Metabolic stability in human liver microsomes assessed as compound remaining at 1 uM after 30 mins in presence of NADPH by LC/MS/MS analysis. The format is ADME, Microsome. As to conditions: read-out: Stability.
The nature of data set [10]: Half life in rat plasma at 1 mg/kg, iv after 5 mins to 24 hrs. The format is ADME, organism-based.
A short description of data set [11]: AUC(0 to infinity) in rat plasma at 10 mg/kg, po after 15 mins to 24 hrs. The format is ADME, organism-based. Further details: dose 10 mg/kg, route oral, time infinity.
Another data set concerns the target T3, Cytochrome P450 1A2 (Homo sapiens, UniProt P05177).
T3 sequence (P05177 whole entry): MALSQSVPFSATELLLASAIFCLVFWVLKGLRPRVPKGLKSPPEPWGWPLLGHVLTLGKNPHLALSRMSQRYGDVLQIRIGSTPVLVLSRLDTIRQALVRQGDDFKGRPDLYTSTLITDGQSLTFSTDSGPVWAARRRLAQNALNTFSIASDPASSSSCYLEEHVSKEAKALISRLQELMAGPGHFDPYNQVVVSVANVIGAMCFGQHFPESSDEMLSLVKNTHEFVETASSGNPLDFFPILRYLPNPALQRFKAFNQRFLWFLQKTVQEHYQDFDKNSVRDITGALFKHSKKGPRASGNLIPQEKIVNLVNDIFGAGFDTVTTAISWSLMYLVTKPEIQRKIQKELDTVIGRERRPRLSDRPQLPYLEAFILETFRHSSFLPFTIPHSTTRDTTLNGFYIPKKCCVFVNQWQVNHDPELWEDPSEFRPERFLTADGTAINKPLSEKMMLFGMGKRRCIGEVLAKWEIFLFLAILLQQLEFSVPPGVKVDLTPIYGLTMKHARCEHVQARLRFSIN
The experiment in a line: Inhibition of CYP1A2 in human liver microsomes using phenacetin as substrate after 10 mins in presence of NADPH by LC/MS/MS analysis. The format is ADME.

Data set [12] is described as follows: Clearance in rat plasma at 1 mg/kg, iv after 5 mins to 24 hrs. The format is ADME, organism-based.

P-gp (ABCB1), sequence (P08183 whole entry): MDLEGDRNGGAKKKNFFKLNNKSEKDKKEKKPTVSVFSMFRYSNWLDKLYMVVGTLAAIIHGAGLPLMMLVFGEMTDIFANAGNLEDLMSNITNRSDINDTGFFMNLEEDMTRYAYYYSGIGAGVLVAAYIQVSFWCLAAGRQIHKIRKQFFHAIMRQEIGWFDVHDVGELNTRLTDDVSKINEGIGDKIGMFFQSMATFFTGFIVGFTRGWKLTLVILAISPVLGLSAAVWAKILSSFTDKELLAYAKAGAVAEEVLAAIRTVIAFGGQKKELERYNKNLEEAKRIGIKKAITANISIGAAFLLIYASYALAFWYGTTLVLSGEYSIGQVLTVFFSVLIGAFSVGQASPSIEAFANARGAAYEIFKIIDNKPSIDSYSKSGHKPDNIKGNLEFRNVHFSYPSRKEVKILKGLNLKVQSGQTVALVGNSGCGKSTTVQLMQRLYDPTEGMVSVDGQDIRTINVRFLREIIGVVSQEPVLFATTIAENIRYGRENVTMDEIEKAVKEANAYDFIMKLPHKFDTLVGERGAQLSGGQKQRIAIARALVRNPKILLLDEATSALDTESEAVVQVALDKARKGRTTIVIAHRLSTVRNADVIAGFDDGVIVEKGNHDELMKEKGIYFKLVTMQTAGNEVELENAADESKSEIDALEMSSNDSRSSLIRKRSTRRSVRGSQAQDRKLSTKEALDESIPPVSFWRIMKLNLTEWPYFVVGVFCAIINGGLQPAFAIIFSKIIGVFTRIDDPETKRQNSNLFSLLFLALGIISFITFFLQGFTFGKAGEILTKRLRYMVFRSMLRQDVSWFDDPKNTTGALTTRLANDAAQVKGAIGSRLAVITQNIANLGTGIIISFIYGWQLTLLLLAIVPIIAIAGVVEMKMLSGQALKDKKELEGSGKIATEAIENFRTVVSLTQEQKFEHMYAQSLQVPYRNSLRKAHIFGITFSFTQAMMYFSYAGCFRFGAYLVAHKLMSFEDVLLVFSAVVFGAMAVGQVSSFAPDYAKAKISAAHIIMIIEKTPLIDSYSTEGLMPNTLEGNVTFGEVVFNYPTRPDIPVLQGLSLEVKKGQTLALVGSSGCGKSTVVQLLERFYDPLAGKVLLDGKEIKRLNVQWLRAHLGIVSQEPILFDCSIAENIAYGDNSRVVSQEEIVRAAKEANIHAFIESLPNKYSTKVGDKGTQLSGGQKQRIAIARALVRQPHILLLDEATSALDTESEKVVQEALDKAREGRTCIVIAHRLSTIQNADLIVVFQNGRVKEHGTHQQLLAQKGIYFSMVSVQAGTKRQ

On to `O=C(c1cc(F)cc(Cl)c1)N1CCn2nc(-c3ccc(F)cn3)cc2C1`, for which the solubility (usually the dissolved amount per volume that the medium holds) in data set [1] was determined as 7 µg/mL (≈ 18.7 µM). The Kp at 1 h in data set [2] turned out to be 1.38. The fraction unbound at 1 h in data set [3] was 0.05. The pIC50 on Cytochrome P450 2C8, on Cytochrome P450 2D6, on Cytochrome P450 2C9 and on Cytochrome P450 1A2 was < 4.40 in each case. Further, in data set [4], the Activity result is given as “Not Active”. Also, the bioavailability (in general, the share of a dose that reaches the circulation, judged against a reference dose that is usually intravenous) in data set [5] stood at 95%. The remaining at 0.5 h, 1 µM in data set [6] and in data set [9] was > 97% throughout. In data set [7], the concentration at 1 h amounted to 29.5 µM. The efflux ratio – broadly, the permeability from basolateral to apical divided by that in the opposite direction, in the common usage – at P-gp (ABCB1) was found to be 1.2. For the same compound, the Vd in data set [8] turned out to be 1.5 L/kg. The result with Mus musculus was Active. The half-life (in general, the time needed for the level to fall by half in the phase considered) in data set [10] was 9.2 h. Further, the AUC(0-inf) – broadly, total exposure, with the tail of the curve extrapolated – in data set [11] amounted to 68700 ng·h/mL. Also, in [12], the clearance (as a rule, a measure of how efficiently the substance is removed, as volume per time) is 2.3 mL/min/kg.
